Experimental data as given in patent publication US6642251B1, “Geometrically restricted 2-indolinone derivatives as modulators of protein kinase activity” (Sugen, Inc., priority 1998, dated 2003).
pIC50: −log10 of the molar value. Read-outs that look alike come from different tables or passages of the source.

What was measured:
[1] = biological target: T1, IGF-1 receptor (Homo sapiens, UniProt P08069); assay: Cellular IGF-1 receptor assay (cell IGF); type: cell-based; details: for pIC50: 50% inhibition of target PTK activity; as to cell IGF, outcome of primary assay: key: DNH = did not hit in primary assay
T1 construct: expressed in transfected cells; host or cells: NIH3T3/IGF-1R
T1 sequence (P08069 31-1367): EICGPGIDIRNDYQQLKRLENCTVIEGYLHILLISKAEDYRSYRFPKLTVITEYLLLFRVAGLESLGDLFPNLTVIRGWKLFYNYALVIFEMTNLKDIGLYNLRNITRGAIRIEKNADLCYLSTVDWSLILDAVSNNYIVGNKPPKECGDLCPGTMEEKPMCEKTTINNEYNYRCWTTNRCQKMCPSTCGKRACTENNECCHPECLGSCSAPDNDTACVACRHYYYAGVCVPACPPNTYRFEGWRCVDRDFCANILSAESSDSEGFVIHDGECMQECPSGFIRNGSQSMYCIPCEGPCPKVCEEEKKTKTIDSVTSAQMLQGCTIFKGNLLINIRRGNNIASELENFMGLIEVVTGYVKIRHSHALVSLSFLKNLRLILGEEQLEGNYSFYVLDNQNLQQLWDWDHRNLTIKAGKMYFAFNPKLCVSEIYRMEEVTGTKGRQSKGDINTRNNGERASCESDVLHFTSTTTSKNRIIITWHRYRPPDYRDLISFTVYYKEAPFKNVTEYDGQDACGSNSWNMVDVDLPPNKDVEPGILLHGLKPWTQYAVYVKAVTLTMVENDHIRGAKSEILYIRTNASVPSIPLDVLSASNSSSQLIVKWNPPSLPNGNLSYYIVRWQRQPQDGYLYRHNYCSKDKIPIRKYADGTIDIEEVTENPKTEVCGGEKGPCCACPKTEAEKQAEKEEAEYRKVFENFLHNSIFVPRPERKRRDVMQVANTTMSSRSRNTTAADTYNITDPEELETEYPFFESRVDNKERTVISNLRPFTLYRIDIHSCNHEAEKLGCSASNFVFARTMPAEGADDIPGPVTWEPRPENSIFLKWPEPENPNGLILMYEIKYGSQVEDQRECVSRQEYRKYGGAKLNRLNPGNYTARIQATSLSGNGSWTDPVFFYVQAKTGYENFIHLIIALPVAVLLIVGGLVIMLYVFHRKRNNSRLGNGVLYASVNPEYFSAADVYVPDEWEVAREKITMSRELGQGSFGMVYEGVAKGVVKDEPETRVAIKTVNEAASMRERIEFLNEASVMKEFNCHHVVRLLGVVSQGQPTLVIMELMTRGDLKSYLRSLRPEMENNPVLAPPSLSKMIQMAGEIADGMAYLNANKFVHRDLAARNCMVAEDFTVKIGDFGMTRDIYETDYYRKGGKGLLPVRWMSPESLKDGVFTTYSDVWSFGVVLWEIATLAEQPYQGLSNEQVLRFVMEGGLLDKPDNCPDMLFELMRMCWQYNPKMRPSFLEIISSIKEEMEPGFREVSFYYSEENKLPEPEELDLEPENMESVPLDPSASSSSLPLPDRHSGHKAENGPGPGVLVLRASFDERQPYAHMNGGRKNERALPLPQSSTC
Experimental: The following protocol may be used to measure phosphotyrosine level on IGF-1 receptor, which indicates IGF-1 receptor tyrosine kinase activity.
a. The cell line used in this assay is 3T3/IGF-1R, a cell line genetically engineered to overexpresses IGF-1 receptor.
2. […] Incubate for 1 day then replace medium to serum-free medium (90/μl) and incubate in 5% CO2 and 37° C. overnight.
2. Remove the coating solution, and replace with 100 μl Blocking Buffer, and shake for 30 minutes. Remove the blocking buffer and wash the plate just before adding lysate.
1. The drugs are tested under serum-free condition.
2. Dilute drug stock (in 100% DMSO) 1:10 with DMEM in 96-well poly-propylene plate, and transfer 10 μl/well of this solution to the cells to achieve final drug dilution 1:100, and final DMSO concentration of 1.0%. Incubate the cells in 5% CO2 at 37° C. for 2 hours.
3. Prepare fresh cell lysis buffer (HNTG*)
4. After drug incubation for two hours, transfer 10 μl/well of 200 nM IGF-1 Ligand in PBS to the cells (Final Conc. is 20 nM), and incubate at 5% CO2 at 37° C. for 10 minutes.
5. Remove media and add 100 μl/well HNTG* and shake for 10 minutes. Look at cells under microscope to see if they are adequately lysed.
6. Use a 12-channel pipette to scrape the cells from the plate, and homogenize the lysate by repeated aspiration and dispensing. Transfer all the lysate to the antibody coated ELISA plate, and shake for 1 hour.
7. Remove the lysate, wash the plate, transfer anti-pTyr (1:3,000 with TBST) 100 μl/well, and shake for 30 minutes.
8. Remove anti-pTyr, wash the plate, transfer TAGO (1:3,000 with TBST) 100 μl/well, and shake for 30 minutes.
9. Remove detection antibody, wash the plate, and transfer fresh ABTS/H2O2 (1.2 μl H2O2 to 10 ml ABTS) 100 μl/well to the plate to start color development.
10. Measure OD at 410 nm with a reference wavelength of 630 nm in Dynatec MR5000.

[2] = biological target: Pyk2 (Homo sapiens, UniProt Q14289); assay: Pyk2 assay; type: biochemical; as to Pyk2, outcome of primary assay: key: DNH = did not hit in primary assay
Pyk2, sequence (Q14289 whole entry, species assumed): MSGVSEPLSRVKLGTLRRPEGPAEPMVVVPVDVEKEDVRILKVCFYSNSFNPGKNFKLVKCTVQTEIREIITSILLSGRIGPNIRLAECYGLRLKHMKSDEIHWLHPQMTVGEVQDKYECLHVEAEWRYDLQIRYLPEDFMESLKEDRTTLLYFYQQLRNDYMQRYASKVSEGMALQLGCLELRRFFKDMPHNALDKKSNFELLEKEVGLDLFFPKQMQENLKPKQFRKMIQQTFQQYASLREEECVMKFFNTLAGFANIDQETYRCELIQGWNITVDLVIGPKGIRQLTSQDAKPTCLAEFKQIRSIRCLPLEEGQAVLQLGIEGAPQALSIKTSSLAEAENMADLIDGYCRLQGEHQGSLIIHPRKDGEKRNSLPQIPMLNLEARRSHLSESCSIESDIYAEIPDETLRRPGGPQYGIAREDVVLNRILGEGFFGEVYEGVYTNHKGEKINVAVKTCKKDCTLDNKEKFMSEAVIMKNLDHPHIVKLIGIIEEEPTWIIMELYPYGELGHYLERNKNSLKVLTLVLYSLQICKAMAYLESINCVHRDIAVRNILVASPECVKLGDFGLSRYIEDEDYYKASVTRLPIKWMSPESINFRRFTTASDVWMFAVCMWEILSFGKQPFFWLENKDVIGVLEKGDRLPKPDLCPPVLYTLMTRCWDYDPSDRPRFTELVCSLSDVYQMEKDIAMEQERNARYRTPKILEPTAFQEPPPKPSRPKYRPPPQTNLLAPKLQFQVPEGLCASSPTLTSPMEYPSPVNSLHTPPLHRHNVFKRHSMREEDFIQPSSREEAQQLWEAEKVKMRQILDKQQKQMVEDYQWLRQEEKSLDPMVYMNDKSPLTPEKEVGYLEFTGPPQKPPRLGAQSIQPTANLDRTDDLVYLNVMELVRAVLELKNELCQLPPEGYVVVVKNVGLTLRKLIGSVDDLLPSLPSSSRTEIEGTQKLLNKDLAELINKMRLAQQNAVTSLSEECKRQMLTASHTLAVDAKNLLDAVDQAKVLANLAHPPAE

[3] = biological target: T2, human flk-1 (Homo sapiens, UniProt P35968); assay: Biochemical FLK-1 assay (bio Flk), autophosphorylation ELISA
T2 construct: expressed in transfected cells; host or cells: NIH fibroblast line (Flk-1/NIH cells, clone 3)
T2 sequence (P35968 20-1356): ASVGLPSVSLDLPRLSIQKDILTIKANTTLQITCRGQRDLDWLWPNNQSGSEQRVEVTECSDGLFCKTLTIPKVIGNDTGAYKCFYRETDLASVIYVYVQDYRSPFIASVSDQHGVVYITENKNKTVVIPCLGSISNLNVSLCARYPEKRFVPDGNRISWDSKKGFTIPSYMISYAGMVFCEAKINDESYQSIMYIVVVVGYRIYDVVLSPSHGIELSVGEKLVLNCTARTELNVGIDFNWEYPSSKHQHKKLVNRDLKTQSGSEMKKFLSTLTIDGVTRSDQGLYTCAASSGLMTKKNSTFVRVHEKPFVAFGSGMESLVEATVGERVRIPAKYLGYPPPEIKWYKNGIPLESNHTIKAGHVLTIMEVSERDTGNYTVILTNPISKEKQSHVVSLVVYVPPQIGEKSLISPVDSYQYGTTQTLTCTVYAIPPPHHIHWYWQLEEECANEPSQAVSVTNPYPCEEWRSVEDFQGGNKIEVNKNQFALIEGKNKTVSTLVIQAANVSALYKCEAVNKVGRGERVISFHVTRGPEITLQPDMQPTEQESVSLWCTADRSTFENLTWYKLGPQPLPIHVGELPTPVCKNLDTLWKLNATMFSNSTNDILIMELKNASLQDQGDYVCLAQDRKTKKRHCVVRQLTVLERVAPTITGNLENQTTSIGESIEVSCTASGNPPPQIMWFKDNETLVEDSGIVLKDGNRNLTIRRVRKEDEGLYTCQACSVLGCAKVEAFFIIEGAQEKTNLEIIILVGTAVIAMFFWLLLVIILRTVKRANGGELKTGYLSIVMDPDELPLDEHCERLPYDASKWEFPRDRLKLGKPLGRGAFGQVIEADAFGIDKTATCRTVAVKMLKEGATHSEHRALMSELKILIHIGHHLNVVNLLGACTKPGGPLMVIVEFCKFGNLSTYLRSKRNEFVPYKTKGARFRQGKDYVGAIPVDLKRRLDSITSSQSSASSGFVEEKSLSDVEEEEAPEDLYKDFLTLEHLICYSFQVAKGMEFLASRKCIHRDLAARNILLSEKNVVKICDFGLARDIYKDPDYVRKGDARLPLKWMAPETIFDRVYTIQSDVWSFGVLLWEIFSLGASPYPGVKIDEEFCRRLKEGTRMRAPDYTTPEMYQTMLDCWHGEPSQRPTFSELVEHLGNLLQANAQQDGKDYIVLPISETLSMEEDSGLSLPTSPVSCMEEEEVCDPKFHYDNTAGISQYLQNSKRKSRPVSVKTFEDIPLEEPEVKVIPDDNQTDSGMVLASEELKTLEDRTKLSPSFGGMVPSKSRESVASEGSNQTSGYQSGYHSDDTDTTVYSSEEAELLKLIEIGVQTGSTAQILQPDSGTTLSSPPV
Experimental: This assay evaluates flk-1 autophosphorylation activity in vitro using ELISA.
1. Seed cell into growth medium and grow for 2-3 days to 90-100% confluency at 37° C. and 5% C)2.
2. Remove the medium and wash the cells twice with PBS. Lyse with HNTG lysis buffer. Collect all lysates and vortex mix them for 20-30 seconds.
3. Remove insoluble material by centrifugation (5-10 min at about 10,000×g).
4. Determine the protein concentration using BCA kit.
5. Partition lysate into 1 mg aliquots, store at −80° C.
1. Coat Corning 96-well ELISA plates with 2 μg/well purified L4 (or E 38) in 100 μl of PBS. Store overnight at 4° C.
2. Remove unbound proteins from wells by inverting the plate to remove the liquid. Wash one time with dH2O pat plate on paper towel to remove excess liquid.
3. Block plates with 150 μl blocking buffer per well. Incubate for 45-60 minutes with shaking at 4° C.
4. Remove the blocking buffer and wash the ELISA plate three times with dH2O and one time with TBST. Pat plate on paper towel to remove excess liquid.
5. Dilute lysate in PBS to give final concentration of 50 μg/100 μl. Add 100 μl of diluted lysate to each well. Incubate with shaking at 4° C. overnight.
6. Remove unbound proteins from wells by inverting the plate. Wash as in step 4.
7. Add 80 μl of kinase buffer to wells (90 μl to negative control wells).
8. Dilute test compounds (normally 10-fold) into wells of a polypropylene plate containing 20% DMSO in TBS.
9. Add 10 μl of the diluted compounds to the ELISA wells containing immobilized flk-1 and shake. Control wells receive no compounds.
10. From stock 1 mM ATP, prepare 0.3 mM ATP solution in dH20 (alternatively, kinase buffer may be used).
11. Add 10 μl of 0.3 mM ATP to all wells except the negative controls. Incubate for 60 min. at room temperature with shaking.
12. After 1 hr stop the kinase reaction by adding 11 μl 200 mM EDTA. Shake for 1-2 min.
13. Wash the ELISA plate 4 times with dH2O and twice with TBST.
14. Add 100 μl of 1:5000 biotinylated 4G10:TBST to all wells. Incubate 45 min with shaking at room temperature.
15. While the above is incubating, add 50 μl of solutions A & B from the ABC kit to 10 ml of TBST. These solutions must be combined approximately 30 min prior to use.
16. Wash plates as in step 4.
17. Add 100 μl of the preformed A & B complex to all wells. Incubate 30 min with shaking at room temperature.
18. Wash plates as in step 4.
19. Add 100 μl turbo-TMB. Shake at room temperature for 10-15 min.
20. When the color in the positive control wells reaches an absorbance of about 0.35-0.4, stop the reaction with 100 μl of turbo-TMB stop solution.

[4] = 50% inhibition of target PTK activity, read-out: Pyk2 IC50
[5] = 50% inhibition of target PTK activity, read-out: bio Flk IC50

Row | SMILES | cell IGF, outcome of primary assay [1] | pIC50 [2, 4] | pIC50 [3, 5] | Pyk2, outcome of primary assay [2] | Pyk2 % Inh ([2]; concentration not given) | pIC50 [3] | pIC50 [1] | pIC50 [2]
1 | CC1C/C(=C2/C(=O)Nc3ccccc32)c2ccccc21 (stereo not shown) [Compound 1, 3-(3-methylindan-1-ylidene)-1,3-dihydroindol-2-one] | DNH | < 4.00 | 4.74 | – | – | – | – | –
2 | Cc1cccc2c1CC/C2=C1/C(=O)Nc2ccccc21 [Compound 2, 3-(4-Methylindan-1-ylidene)-1,3-dihydroindol-2-one] | DNH | – | 5.09 | DNH | – | – | – | –
3 | COc1ccc2c(c1)CC/C2=C1/C(=O)Nc2ccccc21 [Compound 3, 3-(5-Methoxyindan-1-ylidene)-1,3-dihydroindol-2-one] | DNH | – | – | DNH | 56% | 5.59 | – | –
4 | O=C1Nc2ccccc2/C1=C1\CCc2cc(Cl)ccc21 [Compound 7, 3-(5-Chloroindan-1-ylidene)-1,3-dihydroindol-2-one] | DNH | – | 5.15 | DNH | – | – | – | –
5 | COc1cc2c(cc1OC)/C(=C1\C(=O)Nc3ccccc31)CC2 [Compound 12, 3-(5,6-Dimethoxyindan-1-ylidene)-1,3-dihydroindol-2-one] | – | – | < 4.60 | DNH | – | – | < 4.60 | –
6 | COc1ccc2c(c1)C(CC(=O)[O-])CC2=C1C(=O)Nc2ccccc21.[Na+] (stereo not shown) [Compound 13, [6-Methoxy-3-(2-oxo-1,2-dihydroindol-3-ylidene)-indan-1-yl]acetic Acid Sodium Salt] | – | – | – | – | – | – | < 4.00 | 5.35

Further lines, results first:

Row | cell IGF, outcome of primary assay [1] | pIC50 [2, 4] | pIC50 [3, 5] | Pyk2, outcome of primary assay [2] | Pyk2 % Inh ([2]; concentration not given) | pIC50 [3] | pIC50 [1] | pIC50 [2] | SMILES
7 | DNH | 4.10 | 5.51 | – | – | – | – | – | CN(C)c1ccc2c(c1)CC/C2=C1/C(=O)Nc2ccccc21 [Compound 5, 3-(5-Dimethylaminoindan-1-ylidene)-1,3-dihydroindol-2-one]
8 | DNH | – | 5.37 | DNH | – | – | – | – | O=C1Nc2ccccc2/C1=C1\CCc2cc(N3CCCCC3)ccc21 [Compound 8, 3-(5-Piperidin-1-yl-indan-1-ylidene)-1,3-dihydroindol-2-one]
9 | DNH | – | 5.54 | – | – | – | – | – | O=C1Nc2ccccc2/C1=C1\CCc2cc(Br)ccc21 [Compound 9, 3-(5-Bromoindan-1-ylidene)-1,3-dihydroindol-2-one]
10 | – | – | 5.85 | – | – | – | < 4.00 | – | O=C1Nc2ccccc2/C1=C1\CCc2ccccc21 [Compound 10, 3-Indan-1-ylidene-1,3-dihydroindol-2-one]
11 | – | 5.03 | 7.70 | – | – | – | < 4.00 | – | COc1ccc2c(c1)C(CC(=O)O)C/C2=C1/C(=O)Nc2ccccc21 (stereo not shown) [Compound 11, [6-Methoxy-3-(2-oxo-1,2-dihydroindol-3-ylidene)-indan-1-yl]acetic Acid]
